Assay results from EP1108710A1, “GUAIACOXYPROPANOLAMINES WITH ALPHA/BETA-ADRENERGIC BLOCKING ACTIVITY” (Cheng, Ing-Jun, priority 1998, dated 2000).

Experiments:
[1] = system: BayK8644 pretreated thoracic aorta; assay: Isolated thoracic aorta pretreated with BayK8644, then contracted with concentrated potassium solution; parameters: species or system Wistar rat; details: 0.1 µ M of BayK8644 for 10 minutes; 10^-8 to 10^-5 M compound
Protocol: The effect of compound 1 on the thoracic aorta contraction caused by 75mM KCl. The Wistar rat's isolated thoracic aorta was contraction induced by 75mM of concentrated Potassium solution. […] Furthermore, the contraction effects of 10^-8M of compound 1- 9 were indicated on Table 1. (b) The effect of compound 1 on BayK8644 pretreated thoracic aorta: 0.1 µ M of BayK8644 was first added into the tissue trough. 10 minutes later, 75mM of concentrated Potassium solution was added to induce thoracic aorta contraction. When vasoconstriction had reached stability, different concentrations of (10^-8, 10^-7, 10^-6, and 10^-5M) compound 1 were separately added.

[2] = system: guinea pig's isolated; reserpine pretreated tracheal; assay: Direct effect (tracheal relaxation, intrinsic sympathomimetic activity) on reserpine-pretreated isolated trachea, with and without ICI 118,551
Protocol: Pharmacol 311, pp. 205-218 and pp.237-248 (1980). guinea pigs of weight between 350 ∼ 500 gm were used. 18 ∼ 24 hours before the experiment, 5mg/kg of reserpine was injected via abdominal cavity to remove all endogenous catecholamines. Prior experiment, guinea pigs were sacrificed, the tracheal was immediately removed and placed in Kreb's solution aerated with air mixture and maintained at room temperature of 22 ∼ 25°C. […] […] Then the tissue was repeatedly washed with Kreb's solution. After the tissue had been re-equilibrated for 60 minutes, ICI 118, 551 were administed. After treatment for 30 minutes, compound 1 of similar concentration was administered, and the intrinsic sympathomimetic activity of tracheal was observed.

[3] = system: A7r5 cells; assay: Fluorescence determination of intracellular calcium ion (fluo 3-AM, laser cytometer); format: cell-based; details: 10^-8, 10^-7, and 10^-6M for 5 minutes
Protocol: The intensity of fluo 3-AM was measured by line scanning at 30second interval with an argon laser at […].

[4] = molecular target: T1, β-adrenoreceptor (β1) (Rattus norvegicus, UniProt P18090); assay: β-adrenoceptor blocking action on isolated spontaneously beating right atrium (L-isoproterenol-induced heart rate increase, Schild plot); parameters: species or system Wistar rat
T1 construct: The right and left atria were then separated; from tissue; host or cells: isolated rat right and left atria
T1 sequence (P18090 whole entry): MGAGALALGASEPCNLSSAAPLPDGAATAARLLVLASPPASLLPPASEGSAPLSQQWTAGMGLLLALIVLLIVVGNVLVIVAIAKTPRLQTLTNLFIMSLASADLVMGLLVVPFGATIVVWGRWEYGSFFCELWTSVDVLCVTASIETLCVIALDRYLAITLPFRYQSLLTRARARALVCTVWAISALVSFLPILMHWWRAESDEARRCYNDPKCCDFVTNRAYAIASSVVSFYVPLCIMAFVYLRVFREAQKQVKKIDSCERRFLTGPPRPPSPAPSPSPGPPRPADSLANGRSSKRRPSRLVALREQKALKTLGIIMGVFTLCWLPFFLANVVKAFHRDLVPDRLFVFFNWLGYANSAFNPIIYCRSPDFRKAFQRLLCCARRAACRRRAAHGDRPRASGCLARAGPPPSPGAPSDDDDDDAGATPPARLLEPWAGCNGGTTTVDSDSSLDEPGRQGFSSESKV
Protocol: The right and left atria were then separated. The spontaneously-beating right atria was clipped on both end by heart shaped clips, where one end was fixed at the bottom of 10ml of tissue bath made of physiological saline solution, and temperature maintained at 37°C. The other end of the atria was connected to a force transducer, and isometric contractions and beating rate of the right atria were recorded by COULBOURN AT-High-Speed VideoFigure. […] Cumulative administration interval was when the previous concentration reached its greatest effect, the next concentration would be immediately given.

[5] = system: normotensive rats; assay: Heart rate and blood pressure in living (anaesthetized) rat, intravenous injection; format: in vivo, Wistar rats
Description: Male Wistar rats, weighing 200 ∼ 300g were abdominal anaesthetized with pentobarbital sodium. Tracheal was cannulated to maintain normal respiration. Polyethylene tube was inserted into the left femoral vein to facilitate drug administration. A 3-way stopcock was used, with one end connected to a syringe for drug injection, while the other end was connected to the syringe filled with physiological saline. The latter was used to prevent residual drugs in the polyethylene tube after injection, which would affect experimental accuracy.
The right femoral artery was also inserted with polyethylene, and a 3-way stopcock was used tool, where one end was connected to heparin solution to prevent embolism. The other end was connected to a Disposable Diaphragm Dome, TA1019, and linked to a transducer. Through an amplifier, a recorder recorded the overall and average arterial pressure; heart rate to evaluate the effect of drug on blood pressure and heart rate.

[6] = molecular target: T1, β-adrenoreceptor (β1); assay: β-adrenoceptor blocking action on electrically driven isolated left atrium (L-isoproterenol-induced contractility); parameters: species or system Wistar rat
Protocol: The inspontaneously-beating left atrial tissue was obtained from rat's isolated right atrial tissue experiments. […] The contraction rate was 1Hz and the resting tension 0.5 gm. After 60 minutes of equilibration, the following experiments were performed: • (a) Completion of cumulative concentration-response curve: similar to experimental method on isolated right atrium; • (b)Calculation of pA2 value: similar to calculation method on isolated right atrium.

[7] = molecular target: T2, atrial β 1-receptor (Rattus norvegicus, UniProt P18090); assay: [3H]CGP-12177 receptor binding on atrial membranes; parameters: species or system Wistar rat
T2 construct: The heart and lung of rat were removed and placed in cold Tris buffer; from tissue; host or cells: rat atrial membranes
T2 sequence (P18090 whole entry): as above
Protocol: (§1) The heart and lung of rat were removed and placed in cold Tris buffer. Then the atria and lung were separated and weighed, before placing in cold Tris buffer with volume 20X their weights. […] The centrifugal fluid was again centrifuged at 10,000 gm for 12 minutes. The second centrifugal fluid was centrifuged for the third time at 29,000 gm for 15 minutes. The pellet finally obtained was re-suspended in Tris buffer as little as possible. […] Finally, the protein concentration was diluted with Tris buffer to maintain 200∼250 µ g protein per 100 µ l.
(§2) After reaction, 1ml of cold Tris buffer was added to terminate the binding reaction.

[8] = molecular target: T3, β2-adrenoceptor (Cavia porcellus, UniProt Q8K4Z4); assay: β-adrenoceptor blocking action on isolated trachea contracted with carbachol (L-isoproterenol relaxation); parameters: species or system guinea pig
T3 construct: a portion of tracheal approximately 4 cm long was removed; from tissue; host or cells: isolated guinea pig trachea (reserpine-pretreated animals)
T3 sequence (Q8K4Z4 whole entry): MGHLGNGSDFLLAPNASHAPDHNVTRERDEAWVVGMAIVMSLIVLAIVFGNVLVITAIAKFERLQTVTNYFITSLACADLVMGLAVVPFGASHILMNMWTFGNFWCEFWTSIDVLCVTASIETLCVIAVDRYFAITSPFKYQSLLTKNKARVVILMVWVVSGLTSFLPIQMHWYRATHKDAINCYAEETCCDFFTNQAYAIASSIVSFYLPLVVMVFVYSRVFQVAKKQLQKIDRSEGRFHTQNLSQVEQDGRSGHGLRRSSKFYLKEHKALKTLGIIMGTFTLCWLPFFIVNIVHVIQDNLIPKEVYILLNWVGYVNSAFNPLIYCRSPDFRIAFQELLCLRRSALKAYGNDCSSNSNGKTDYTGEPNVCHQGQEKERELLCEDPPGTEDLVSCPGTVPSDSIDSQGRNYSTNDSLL
Protocol: Guinea pigs of weight between 300 ∼500 gm were used. […] After the guinea pigs were sacrificed, a slit was made along the neck, and a portion of tracheal approximately 4 cm long was removed. […] The two ends of the tracheal were clamped with frog-heart shaped clamps, one end was fixed at the bottom of tissue bath filled with 20 ml of Kreb's solution, maintained at 37°C, while the other end was connected to a force transducer. Through a COULBOURN AT-High-Speed Videograph, long isometric contractions were recorded. […] Then the tracheal was repeatedly washed with Kreb's solution for 20 minutes and 10^-6 M of carbochol was added to cause contraction in the guinea pig's tracheal. When the contraction reached the maximum, every division of tracheal was used to complete two concentration response curve of L-isoproternol, one of them without administration of test compound and used as control; while the other curve was administered with compound 1 for 30 minutes before concentration response curve was completed. This is the test group. • (b) Calculation of pA2: similar to the calculation method for isolated right atrium experiment.

[9] = molecular target: T4, lung β 2-receptor (Rattus norvegicus, UniProt P10608); assay: [3H]CGP-12177 receptor binding on lung membranes; parameters: species or system Wistar rat
T4 construct: The heart and lung of rat were removed and placed in cold Tris buffer; from tissue; host or cells: rat lung membranes
T4 sequence (P10608 whole entry): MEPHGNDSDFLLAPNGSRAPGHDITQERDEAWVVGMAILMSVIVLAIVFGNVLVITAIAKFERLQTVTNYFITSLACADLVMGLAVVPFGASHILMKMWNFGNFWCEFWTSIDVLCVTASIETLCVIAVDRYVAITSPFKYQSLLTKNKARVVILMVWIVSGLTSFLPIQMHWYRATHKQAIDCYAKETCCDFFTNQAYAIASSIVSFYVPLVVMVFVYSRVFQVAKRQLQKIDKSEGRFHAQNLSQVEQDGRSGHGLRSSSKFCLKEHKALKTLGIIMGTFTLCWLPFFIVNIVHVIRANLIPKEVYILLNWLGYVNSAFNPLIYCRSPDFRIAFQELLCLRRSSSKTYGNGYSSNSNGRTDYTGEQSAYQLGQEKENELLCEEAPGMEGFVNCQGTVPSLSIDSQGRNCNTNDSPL
Protocol: as §1, §2

[10] = system: Wistar rat's isolated thoracic aorta; assay: Isolated thoracic aorta contraction caused by 75mM KCl; details: 10^-8M; thoracic aorta contraction caused by 75mM KCl
Protocol: After sacrificing Wistar rat of weight between 300 - 500 gm, the thoracic aorta was immediately removed and placed in cold Kreb's solution. The fatty connecting tissue surrounding the vessel wall was removed and the thoracic aorta was cut into rings of length 5 mm. The two ends of each ring was pieced and fixed with "Z" shaped platinum wires. […] When the results had been recorded for at least 35 minutes, the aorta was repeatedly rinsed with normal Kreb's solution. […] 30 minutes later, 75mM KCl was added again to induce vasoconstriction.

[11] = system: Wistar rat's isolated; reserpine pretreated right atrium beating rate and left atrium isometric contractions; assay: Direct effect (intrinsic sympathomimetic activity) on reserpine-pretreated isolated atria
Protocol: Pharmacol 311, pp. 205-218 and pp 237-248 (1980). Wistar rats of weight between 200 ∼ 300 gm were used. 18 ∼ 24 hours before the experiment, 5mg/kg of reserpine was injected via abdominal cavity to remove all endogenous catecholamines. Prior experiment, Wistar rats were sacrificed, the heart was immediately removed and placed in Kreb's solution aerated with air mixture and maintained at room temperature. The right and left atria were carefully separated.

For `COC(=O)C1=C(C)NC(C)=C(C(=O)OC)C1c1ccc(OCC(O)CNC(C)(C)C)c(OC)c1` (stereo not shown) [compound 1], which “effect of BayK8644 pre-treatment on the compound's vascular effect” value [1] is on record?
Its value is “pre-treatment with BayK8644 would affect vasoconstriction function”.

And the “tracheal relaxation effect after pretreatment with ICI 118, 551” value [2]?
Its value is “concentration-dependently shifting parallel to the right”.

And the tracheal relaxation effect ([2]; cumulative administration 10^-10∼3x10^-6 M, reserpine pretreated)?
The tracheal relaxation effect was “dose-dependant tracheal relaxation effect”.

And the “calcium ion influx effect of KCl ([Ca^2+]i)” value ([3]; 50mM KCl)?
The value was “significantly blocked”.

What about the “calcium ion influx effect of BayK8644 ([Ca^2+]i)” value ([3]; 10 µ M BayK8644) of the same compound?
Its value is “significantly blocked”.

What about the “selectivity ratio of β1 type adrenoceptor (effect on right atrium relative to tracheal)” value ([4]; from the average pA2 difference between right atrium and tracheal) of the same compound?
Its value is 1.32 X.

What about the pA2 value ([4]; isolated right atrium, against L-isoproterenol) of the same compound?
Its pA2 value is 7.21±0.32.

What about the “blocking of heart rate increment effect of L-isoproterenol” value ([4]; isolated right atrium, three concentrations of compound) of the same compound?
Its value is “could competitively block the heart rate increment effect of L-isoproterenol”.

And the “effect on blood pressure and heart rate” value ([5]; intravenous injection of 0.5 mg/kg)?
The value was “a decrease in heart rate was shown”.

What about the “effect on blood pressure and heart rate” value ([5]; intravenous injection, 0.1, 0.25, 0.5, 1.0, 2.0 mg/kg, normotensive rats) of the same compound?
The value was “continuous dose-dependent blood pressure lowering effect without increasing heart rate”.

What about the “duration of blood pressure lowering effect” value ([5]; intravenous injection, normotensive rats) of the same compound?
The value was “approximately 1 hour”.

What about the “Lowering of Blood Pressure” value ([5]; lmg/kg, via femoral vein, rats) of the same compound?
Its value is 70± 3 mm Hg.

What about the “Reduction of Heart Rate” value ([5]; lmg/kg, via femoral vein, rats) of the same compound?
The value was 30± 2 beats/min.

And the “blocking of heart contractility increment effect of L-isoproterenol” value ([6]; isolated left atrium, three concentrations of compound)?
Its value is “could competitively block the heart contractility increment effect of L-isoproterenol”.

What about the pA2 value ([6]; left atrium contractility, against L-isoproterenol) of the same compound?
Its pA2 value is 6.91±0.26.

What about the Ki [7] of the same compound?
Its Ki is 245 nM.

What about the pA2 value ([8]; guinea pig's isolated tracheal, against L-isoproterenol) of the same compound?
The pA2 value was 7.09±0.54.

What about the “blocking of tracheal relaxation effect of L-isoproterenol” value ([8]; trachea contracted with 10^-6 M CARBACHOL) of the same compound?
The value was “could competitively block the effect of L-isoproterenol”.

And the Ki [9]?
The Ki was 631 nM.

And the “Aorta Relaxation” value [10]?
Its value is 30± 3%.

And the “direct effect on right atrium beating rate and left atrium isometric contractions” value ([11]; cumulative administration, reserpine pretreated)?
The value was “could not increase the beating rate and isometric contractions”.

What about the “concentration with blocking effect on beating rate and isometric contractions” value ([11]; reserpine pretreated atria) of the same compound?
The value was ≥ 10^-5 M.
